Columns and labels:
[1] = Measurement of Solubility in various kinds of polar solvents; format: physicochemical; conditions: for Solubility in 2-butanol: solvent: 2-butanol; for Solubility in Acetone: solvent: Acetone; for Solubility in Methanol: solvent: Methanol; for Solubility in Tetrahydrofuran: solvent: Tetrahydrofuran; for Solubility in Water: solvent: Water
Protocol: Solubilities of 2,2'-azobis[N-(butanol-2-yl)-2-methylpropionamide] (hereinafter abbreviated as Present compound 1) obtained by Example 1 and 2,2'-azobis[N-(propanol-2-yl)-2-methylpropionamide] (hereinafter abbreviated as Present compound 2) obtained by Example 2 to various kinds of polar solvent was measured.
The same measurement of solubility as Experiment 1 was conducted except for using of 2,2'-azobis[2-methyl-N-(2-hydroxyethyl)-propionamide] [drawing 9] (hereinafter abbreviated as Known compound 1), 2,2'-azobis {2-methyl-N-[1,1-bis(hydroxymethyl)-2-hydroxyethyl] propionamide} [drawing 10] (hereinafter abbreviated as Known compound 2) and 2,2'-azobis {2-methyl-N-[1,1-bis(hydroxymethyl)ethyl] propionamide} [drawing 11] (hereinafter abbreviated as Known compound 3) in place of Present compound 1.

[2] = 10 hours half life temperature (thermal decomposition); format: physicochemical

Solubility in 2-butanol [1]	Solubility in Acetone [1]	Solubility in Methanol [1]	Solubility in Tetrahydrofuran [1]	Solubility in Water [1]	Solubility in a various kind of polar solvents compared with Known compounds 1, 2 and 3 (in words) [1]	Solubility in rather low polar solvents such as 2-butanol (in words) [1]	10 hours half life temperature [2]	Structure (SMILES)
> 10 g	> 10 g	> 10 g	> 10 g	> 10 g	remarkably higher	soluble	84.7 °C	CC[C@H](CO)NC(=O)C(C)(C)N=NC(C)(C)C(=O)N[C@H](CC)CO [Present compound 1, 2,2'-azobis[N-(butanol-2-yl)-2-methylpropionamide]]
< 0.l	0.3 g	6.5 g	0.3 g	0.6 g	remarkably higher	soluble	83.1 °C	CC(CO)NC(=O)C(C)(C)N=NC(C)(C)C(=O)NC(C)CO (racemic) [Present compound 2, 2,2'-azobis[N-(propanol-2-yl)-2-methylpropionamide]]

Further lines, the compound ahead of its results:

Structure (SMILES)	Solubility in 2-butanol [1]	Solubility in Acetone [1]	Solubility in Methanol [1]	Solubility in Tetrahydrofuran [1]	Solubility in Water [1]	Solubility in a various kind of polar solvents compared with Known compounds 1, 2 and 3 (in words) [1]	Solubility in rather low polar solvents such as 2-butanol (in words) [1]	10 hours half life temperature [2]
CC(C)(N=NC(C)(C)C(=O)NCCO)C(=O)NCCO [Known compound 1, 2,2'-azobis[2-methyl-N-(2-hydroxyethyl)-propionamide]]	insoluble	insoluble	4.55 g	insoluble	2.4 g	–	–	–
CC(C)(N=NC(C)(C)C(=O)NC(CO)(CO)CO)C(=O)NC(CO)(CO)CO [Known compound 2, 2,2'-azobis {2-methyl-N-[1,1-bis(hydroxymethyl)-2-hydroxyethyl]propionamide}]	insoluble	insoluble	1.89 g	insoluble	2.0 g	–	–	–
CC(CO)(CO)NC(=O)C(C)(C)N=NC(C)(C)C(=O)NC(C)(CO)CO [Known compound 3, 2,2'-azobis {2-methyl-N-[1,1-bis(hydroxymethyl)ethyl]propionamide}]	insoluble	insoluble	5.18 g	insoluble	0.6 g	–	–	–
